Results from PubChem BioAssay AID1845199 (Molecular Pharmacology Branch, DTP, NCI, 2023).
Several values for one entry are separate records, joined by “and”; a condition that tells them apart may be missing. Identical values can stand only once.

Tested on: 556581-035-R-J1 tumor spheroid viability, % test/control
Assay: Anticancer human tumor 556581-035-R-J1 patient-derived ovarian carcinoma cell line growth inhibition
Settings: spheroids with HUVEC and MSC; for viability, T/C: stronger effect = lower value
Source text: Multicellular complex tumor spheroid response to DNA repair inhibitors in combination with DNA-damaging drugs
This study explores the anticancer activities of DNA-damaging drugs and inhibitors of DNA damage repair, both as single agents and in combinations. Complex tumor spheroids comprised of malignant cells, endothelial cells and mesenchymal stem cells served as an in vitro model for human solid tumors. This model system incorporates physiologically relevant features and patient-derived or established malignant cell lines with clinically relevant genetic alterations from many tumor types. Twenty-six patient-derived or established malignant cell lines were evaluated representing sarcoma, melanoma, small cell lung cancer (SCLC), non-small cell lung cancer (NSCLC), as well as bladder, ovarian and pancreatic cancers. The concentration ranges selected for each drug and investigational agent were based upon clinically achievable concentrations if the clinical Cmax of the agent was known.
Compounds. The drugs and compounds olaparib (NSC753686), talazoparib (NSC767125), berzosertib (NSC777718), elimusertib (NSC800525), nedisertib (NSC802822), VX-984 (NSC792969), AZD-1390 (NSC803789), temozolomide (NSC362856), topotecan (NSC609699), trabectedin (NSC813783), staurosporine (NSC755774), and gemcitabine (NSC613327) were obtained from the National Cancer Institute (NCI) Developmental Therapeutics Program Chemical Repository. The FDA-approved anticancer drug set is available from the Developmental Therapeutics Program at https://dtp.cancer.gov/organization/dscb/obtaining/available_plates.htm. […] The stock solutions were prepared in dimethyl sulfoxide (DMSO, Sigma-Aldrich, St. Louis, MO, cat. D2650) at 400-fold the tested concentration and stored at -70 degrees C. Prior to their use, the stock solutions were diluted in fresh medium and the final DMSO concentration in the assay was 0.25% (v/v). All drugs and investigational agents were tested over a range starting from a high concentration at or near the clinical Cmax and decreasing in half-log increments. If the clinical Cmax for an agent had not been determined, the highest concentration tested was 10 microM.
Cell Lines. The patient-derived cancer cell (PDC) lines: 156681-154-R-J1-PDC, 283228-195-R-J1-PDC, 287954-098-R-J1-PDC, 292921-168-R-J2-PDC, 349418-098-R-PDC, 425362-245-T-J1-PDC, 556581-035-R-J1-PDC, and BL0293-F563-PDC were received from the NCI Patient-Derived Models Repository (PDMR, https://pdmr.cancer.gov). The established cell lines HS-SY-2 (RRID:CVCL_8719), MPNST, and SYO-1 (RRID:CVCL_7146) were obtained from the Sloan Kettering Institute. The alveolar soft parts sarcoma cell line ASPS-1 (RRID:CVCL_S738) was established at the NCI and grown from internal seed stocks. The following established cell lines were purchased from the American Type Culture Collection (ATCC, Manassas, VA): G-401 (ATCC, cat. CRL-1441, RRID:CVCL_0270), SW982 (ATCC, cat. HTB-93, RRID:CVCL_1734), VA-ES-BJ (ATCC, cat. CRL-2138, RRID:CVCL_1785), NCI-H719 (ATCC, cat. CRL-5837, RRID:CVCL_1582), NCI-H196 (ATCC, cat. CRL-5823, RRID:CVCL_1509), NCI-H841 (ATCC, cat. CRL-5845, RRID:CVCL_1595), NCI-H1618 (ATCC, cat. CRL-5879, RRID:CVCL_1480), NCI-H1876 (ATCC, cat. CRL-5902, RRID:CVCL_1503), DMS 114 (ATCC, cat. CRL-2066; RRID:CVCL_1174), NCI-H211 (ATCC, cat. CRL-5824; RRID:CVCL_1529), and SW 1271 (ATCC, cat. CRL-2177, RRID:CVCL_1716). The small cell lung cancer cell line COR-L88 was purchased from Sigma-Aldrich (cat. 92031917-1VL, RRID:CVCL_1141). The non-small cell lung cancer cell lines NCI-H226 (RRID:CVCL_1544) and NCI-H322M (RRID:CVCL_1557) were established at the NCI and grown from internal seed stocks. Pooled donor human umbilical vein endothelial cells (HUVEC, Lonza, cat. CC-2519) and human mesenchymal stem cells (hMSC, Lonza, cat. PT-2501) were purchased from Lonza (Walkersville, MD).
Cell Culture. All cells were maintained in an incubator at 37 degrees C and 5% CO2 with 95% humidity. […]

[1] = compound alone, run of 10/17/2019
[2] = compound alone, run of 10/25/2019
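Further: spheroids exposed to compounds for 7 days before viability read.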

| SMILES | viability, T/C (compound 0.0316 µM) | viability, T/C (compound 0.1 µM) | viability, T/C (compound 0.316 µM) | viability, T/C (compound 1 µM) | viability, T/C (compound 3.16 µM) | viability, T/C (compound 10 µM) | IC50 (curve of compound) | viability, T/C (compound 0.03 µM) | viability, T/C (compound 0.0949 µM) | viability, T/C (compound 0.3 µM) | viability, T/C (compound 0.949 µM) | viability, T/C (compound 3 µM) | further results |
| --- | --- | --- | --- | --- | --- | --- | --- | --- | --- | --- | --- | --- | --- |
| CC(C)n1c(=O)n(C)c2cnc3cc(F)c(-c4ccc(OCCCN5CCCCC5)nc4)cc3c21 | 104% and 103% and 102% | 109% and 106% and 112% | 95.9% and 108% and 103% | 105% and 114% and 101% | 100% and 99.6% and 95.5% | 74.3% and 73.2% and 69% | > 10000 nM |  |  |  |  |  |  |
| CC1COCCN1c1cc(-c2ccnn2C)c2ccnc(-c3ccn[nH]3)c2n1 (stereo not given) | 95.7% and 92.7% and 89.5% | 76.3% and 75.8% and 79.5% | 56.5% and 57.8% and 55.5% | 45.5% and 44.4% and 41.9% | 39.9% and 39% and 33.9% | 35.6% and 32.5% and 30.2% | 636 nM and 647 nM and 521 nM |  |  |  |  |  |  |
| CC[C@@]1(O)C(=O)OCc2c1cc1n(c2=O)Cc2cc3c(CN(C)C)c(O)ccc3nc2-1 |  |  |  |  |  |  |  | 74.6% [middle of 10 runs] | 58.5% [middle of 10 runs] | 16.5% [middle of 10 runs] |  |  | viability, T/C (compound 0.003 µM): 101% [middle of 10 runs]; IC50 [1]: 121 nM [middle of 4 runs]; IC50 [2]: 80.7 nM [middle of 5 runs] |
| CNCc1ccc(-c2cc(-c3nc(-c4ccc(S(=O)(=O)C(C)C)cc4)cnc3N)on2)cc1 |  |  |  |  |  |  | 1430 nM and 1680 nM and 1750 nM | 105% and 95.6% and 111% | 103% and 115% and 108% | 106% and 112% and 108% | 66.6% and 80.3% and 75.4% | 20.2% and 19.4% and 27.6% | viability, T/C (compound 0.00949 µM): 107% and 97.6% and 104% |
| COc1cc(C)[nH]c(=O)c1CN1CCc2c(Cl)cc(C(OC)C3COC3)c(Cl)c2C1=O (stereo not given) | 103% and 105% and 98.8% | 110% and 101% and 105% | 107% (2×) and 99.8% | 111% and 108% and 102% | 114% and 107% and 96.9% | 106% and 99.4% and 98.3% | > 10000 nM |  |  |  |  |  |  |
| COc1cc2c(cc1O)CCNC21CSC2c3c(OC(C)=O)c(C)c4c(c3C(COC1=O)N1C(O)C3Cc5cc(C)c(OC)c(O)c5C(C21)N3C)OCO4 (stereo not given) |  |  |  |  |  |  |  |  |  |  |  |  | viability, T/C (compound 94.9 pM): 106% [middle of 10 runs]; viability, T/C (compound 0.0003 µM): 95.4% [middle of 10 runs]; viability, T/C (compound 0.000949 µM): 41% [middle of 10 runs]; viability, T/C (compound 0.003 µM): 0.66% [middle of 10 runs]; IC50 [2]: 0.795 nM [middle of 10 runs] |
| COc1ccc([C@@H](O)c2cc(-c3ncnc4cc(N5CCOCC5)ccc34)c(F)cc2Cl)nn1 | 103% and 102% and 98.8% | 104% and 111% and 99.6% | 81.3% and 90.1% and 91% | 61.1% and 70.3% and 64.7% | 40.9% and 49.5% and 41.4% | 31.9% and 35.1% and 31.1% | 1810 nM and 2830 nM and 2020 nM |  |  |  |  |  |  |
| Cc1cc(C)c(CNC(=O)c2cc(-c3ccc(CN4CCOCC4)cc3)cc3c2cnn3C2CCCC2)c(=O)[nH]1 | 103% and 104% and 86.6% | 108% and 103% and 97.3% | 112% and 108% and 97.3% | 115% and 102% and 120% | 104% and 105% and 107% | 89.3% (2×) and 93.4% | > 10000 nM |  |  |  |  |  |  |
| Cc1sc2c(c1C)C(c1ccc(Cl)cc1)=NC(CC(=O)Nc1ccc(O)cc1)c1nnc(C)n1-2 (stereo not given) |  |  |  |  |  |  | > 3000 nM | 98.1% and 83.8% and 103% | 82.5% and 90.3% and 88.8% | 74.5% and 89.5% and 82.5% | 71.8% and 76.6% and 76% | 66.2% and 70.1% and 71.4% | viability, T/C (compound 0.00949 µM): 102% and 101% and 103% |
| Cn1ncnc1[C@H]1c2n[nH]c(=O)c3cc(F)cc(c23)N[C@@H]1c1ccc(F)cc1 |  |  |  |  |  |  | > 3000 nM | 107% and 97.1% and 105% | 102% and 89.2% and 95.8% | 97.6% and 80.2% and 83.6% | 77.9% and 69.9% and 76% | 60.8% and 52.1% and 56.5% | viability, T/C (compound 0.00949 µM): 110% and 95.9% and 100% |
| Cn1nnc2c(C(N)=O)ncn2c1=O |  |  |  | 103% [middle of 10 runs] |  | 104% [middle of 10 runs] |  |  |  |  |  |  | viability, T/C (compound 31.6 µM): 107% [middle of 10 runs]; IC50 [1]: > 100000 nM |
| O=C(c1cc(Cc2n[nH]c(=O)c3ccccc23)ccc1F)N1CCN(C(=O)C2CC2)CC1 |  |  |  |  |  |  | > 30000 nM |  | 100% and 105% and 95.8% | 97.9% and 107% and 110% | 98.4% and 102% and 100% | 90% and 103% and 96.5% | viability, T/C (compound 9.49 µM): 75.5% and 90.5% and 81.3%; viability, T/C (compound 30 µM): 64.7% and 72.9% and 67.7% |
| [2H]c1nc(C)nc([2H])c1-c1cc(NC[C@@H](C)c2cccc3c(C(=O)NC)ccnc23)ncn1 | 112% and 111% and 102% | 111% and 107% (2×) | 108% and 109% and 110% | 113% and 105% and 101% | 116% and 106% and 105% | 115% and 111% and 105% | > 10000 nM |  |  |  |  |  |  |
